# pKi: −log10 of the molar value.
# Target: T1, human leukocyte elastase (Homo sapiens, UniProt P08246)
# T1 sequence (P08246 30-267): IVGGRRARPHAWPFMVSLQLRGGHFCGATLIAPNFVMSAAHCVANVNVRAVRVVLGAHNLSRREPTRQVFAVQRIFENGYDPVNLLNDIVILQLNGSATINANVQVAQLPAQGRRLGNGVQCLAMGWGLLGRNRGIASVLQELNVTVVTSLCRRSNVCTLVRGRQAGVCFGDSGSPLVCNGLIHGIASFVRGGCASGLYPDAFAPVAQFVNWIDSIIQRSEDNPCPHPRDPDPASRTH
# Assay: Human leukocyte elastase (HLE) inhibition, progress-curve assay with MeOSuc-Ala-Ala-Pro-Val-pNA
# Format: biochemical
# Conditions: substrate MeOSuc-Ala-Ala-Pro-Val-pNA, pH 7.8, 25° C., absorbance 410 nm, read-out: Ki (human leukocyte elastase inhibitory activity)
# Method: The test compound (inhibitor) is dissolved in DMSO in a vial to produce an inhibitor stock solution which has a concentration in the range of 200-1000 μM. The inhibitor stock solution is diluted (1:4, 1:16 and 1:64) into assay vials (vials 1, 2 and 3 respectively) containing 2.4 mL of buffer solution (50 mM N-[2-hydroxyethyl] piperazine-N'-[2-ethanesulfonic acid]/NaOH, 500 mM NaCl, pH 7.8 at 25° C.) and DMSO is added so that the total volume in each vial is 3.2 mL. 70 μL, 50 μL, 35 μL and 25 μL of inhibitor from assay vial 1 is placed into the first four wells of a 96-well microtiter plate and each well is made up to 90 μL total volume with the addition of a 25% DMSO/buffer solution. The inhibitor from assay vials 2 and 3 is processed in a similar manner and placed in wells 5-12 respectively to afford a total of 12 different inhibitor concentrations. Four wells (wells 13-16) containing 90 μL of the 25% DMSO/buffer solution but no inhibitor are also run simultaneously with the inhibited wells as a control. 150 μL of substrate solution (prepared by the addition of 500 μL of the human leukocyte elastase (HLE) substrate MeOSuc-Ala-Ala-Pro-Val-pNA (18.7 mM in DMSO) to 19.5 mL of buffer solution) was then added simultaneously into each of the 16 wells and the solution in each well was thoroughly mixed.
# The 96-well microtiter plate was placed into a Microplate Reader #89815A spectrophotometer 110 μL of the enzyme solution (prepared as follows: a mixture of 20 mL of buffer solution and 20 mg of bovine serum albumen is gently vortexed in a scintillation vial and 5 μL HLE stock solution (1 mg/mL dissolved in deionized water) is added simultaneously to each of the 16 wells. Each of the solutions in the wells is throughly mixed and then the time-dependent absorbance data is collected at an absorbance of 410 nm until the assay is complete. It should be noted that although this assay method can be done manually, it is preferred to perform the assay robotically using a Hewlett Packard MicroAssay System Robot.
# A plot of the absorbance versus time data thus obtained affords progress curves the final slope of which is equal to the final steady-state velocities (VF). Using the program. ENZFITTER (Elsevier software), the progress curves for the four control assays ([I]=O) are fit by linear regression to yield the enzyme reaction velocity values in the absences of inhibitor (Vo) which are averaged to produce a single fixed value. The inhibition constant Ki (nM) is then obtained from a plot of [formula] which affords a linear plot wherein: [formula] and [S] is the concentration of the substrate and Km is the Michaelis constant.
# Table IV summarizes the results obtained from the testing of representative compounds of the invention for human leukocyte elastase inhibitory activity.
row,pKi,SMILES
1,7.70,"O=C1c2ccccc2S(=O)(=O)N1c1c(F)c(F)nc(F)c1F [Example 1, 2-(2,3,5,6-tetrafluoro-4-pyridyl)-1,2-benzisothiazol-3(2H)-one 1,1-dioxide]"
2,7.42,"COc1cc(C(C)C)c2c(c1)S(=O)(=O)N(c1c(F)c(F)nc(F)c1F)C2=O [Example 2, 4-isopropyl-6-methoxy-2-(2,3,5,6-tetrafluoro-4-pyridyl)-1,2-benzisothiazol-3(2H)-one 1,1-dioxide]"
3,7.32,COc1cc2c(c(C(C)C)c1OC)C(=O)N(c1c(F)c(F)nc(F)c1F)S2(=O)=O [Example 3]
4,8.40,COc1cc(OC)c2c(c1)S(=O)(=O)N(c1c(F)c(F)nc(F)c1F)C2=O [Example 4]
5,7.82,COc1ccc2c(c1OC)C(=O)N(c1c(F)c(F)nc(F)c1F)S2(=O)=O [Example 5]
6,7.80,CCCc1c(OC)c(OC)cc2c1C(=O)N(c1c(F)c(F)nc(F)c1F)S2(=O)=O [Example 6]
7,8.19,COc1cccc2c1C(=O)N(c1c(F)c(F)nc(F)c1F)S2(=O)=O [Example 7]
8,8.85,CCOc1cccc2c1C(=O)N(c1c(F)c(F)nc(F)c1F)S2(=O)=O [Example 8]
9,6.85,CC(C)Oc1cccc2c1C(=O)N(c1c(F)c(F)nc(F)c1F)S2(=O)=O [Example 9]
10,7.13,COc1ccc2c(c1)S(=O)(=O)N(c1c(F)c(F)nc(F)c1F)C2=O [Example 10A]
11,7.00,CC(C)c1cccc2c1C(=O)N(c1c(F)c(F)nc(F)c1F)S2(=O)=O [Example 10]
12,5.70,"CC(C)c1cc(O)cc2c1C(=O)N(c1c(F)c(F)nc(F)c1F)S2(=O)=O [Example 11, 4-isopropyl-6-hydroxy-2-(2,3,5,6-tetrafluoro-4-pyridyl)-1,2-benzisothiazol-1,2-benzisothiazol-3(2H)-one 1,1-dioxide]"
13,7.30,"CC(C)Oc1cc(C(C)C)c2c(c1)S(=O)(=O)N(c1c(F)c(F)nc(F)c1F)C2=O [Example 12, 4-isopropyl-6-isopropoxy-2-(2,3,5,6-tetrafluoro-4-pyridyl)-1.2-benzisothiazol-3(2H)-one 1,1-dioxide]"

# Reference: patent US5455255A, “2-(2,3,5,6-tetrafluoro-4-pyridyl)-1,2-benzisothiazol-3(2H)-one 1,1-dioxides and compositions and method of use thereof” (Sterling Winthrop Inc., priority 1994, dated 1995)
